From US8252337B2, “Charged mesoporous silica nanoparticle-based drug delivery system for controlled release and enhanced bioavailability” (National Health Research Institutes, priority 2008, dated 2012)

Test: Saturated aqueous sulfasalazine solution
Assay type: physicochemical
Settings: in H2O
Description: Sulfasalazine-Loaded MSN-TA Samples: A saturated aqueous sulfasalazine solution was prepared by dissolving 0.5 g of sulfasalazine in 1 L of H2O, stirred for 6 h, and filtered through a […] cellulose acetate membrane to remove the residual solids. […] Sulfasalazine was adsorbed onto MSN-TA samples by adding 10 mg of MSN-TA samples into 10 mL of the above saturated sulfasalazine solution. The mixture was stirred at 800 rpm for 4 h. The particles were then washed with deionized water and centrifuged for 20 min at 12 000 rpm. The supernatant was analyzed with a UV-Vis spectrometer. The amount of Sulfasalazine adsorbed onto nanoparticles was determined by measuring the decrease in absorption at 360 nm. The loading percentage of sulfasalazine onto MSN-TA-4 was about 1.7%.

In the case of `O=C(O)c1cc(/N=N/c2ccc(S(=O)(=O)Nc3ccccn3)cc2)ccc1O` [sulfasalazine], the “pH of saturated sulfasalazine solution” value is reported as 5.4.
